# Where two headings read alike, the source gives them in different places.
# Assays:
# [1] = literature (Keeler, 1978; Gaffield and Keeler, 1996); cited from earlier work
# MCF-7-AdrR cells [2] = test: cells; conditions: for reduction of cell viability by adriamycin in the presence of the steroidal alkaloid: 10 μM alkaloid fixed, increasing adriamycin up to 10 μM, compared with drug-free incubations; for EC50: Homo sapiens, read-out: EC50 of sensitization of the cells to adriamycin; for reduction of cell survival by the steroidal alkaloid alone: alkaloid alone (10 μM), MCF-7-AdrR, MTT
# Method: Cells were plated in 96-well plates at a density of 4×10^3 cells/well in 0.1 ml drug-free DMEM containing 5% fetal calf serum, and incubated at 37° C. for 48 h. After this time, cytotoxic drugs (adriamycin or vinblastine) were added to the wells at the indicated concentrations, in the absence or presence of the tested steroidal alkaloids, and the cells were further incubated for an additional 48-72 h. The cytotoxic activity of the drugs was then determined using a standard MTT cell survival assay (Hansen, M. B. et al., J. Immunol. Meth 119: 203-210. The […] reagent (diluted from a 5 mg/ml solution in PBS) was added to all the wells at a final concentration of 0.6 mg/ml and the cells were further incubated at 37° C. for 2 or 3 h. The reaction was terminated by adding 100 μl/well of an extraction solution consisting of 20% (w/v) sodium dodecyl sulfate (SDS) in 50% aqueous dimethyl formamide solution, pH 4.8. The plates were left overnight at room temperature in the dark, following which the absorbance was read at 570-nm using an ELISA plate reader. […] Data points represent the mean±S.D. of a quadruplicate determination from a representative experiment that was repeated at least twice. The results are expressed as a percentage of control, drug-free wells.
# The cytotoxic effect of the drugs was evaluated by utilizing the MTT cell viability assay, a standard assay for assessing drug resistance and its reversal. Routinely, MCF-7-AdrR cells were exposed to increasing concentrations of drugs for 48 h and the number of viable cells was quantitated after adding the MTT reagent.
# MCF-7-AdrR cells [3] = test: TMR (tetramethylrosamine chloride) accumulation, in vitro drug uptake model; type: cell-based, human; conditions: for EC50: Homo sapiens, 0.5 h, read-out: concentration half maximally effective on TMR accumulation; for maximal stimulation of TMR accumulation / effect on TMR accumulation: MCF-7-AdrR cells; for maximal stimulation of TMR accumulation: 10 μM TMR, 30 minutes at 37° C., relative to TMR alone; for effect on TMR accumulation: FIG. 1A/1B
# Method: The effect of steroidal alkaloids on drug transport was examined by measuring cellular accumulation of TMR, a fluorescent model drug, according to Eytan et al. (Eytan, G. D. et al., Eur. J. Biochem. 248: 104-112, 1997) with some modifications. Cells were seeded in 24-well tissue culture plates at a density of 0.5×10^5 cells/well and were grown for 24 h in growth medium supplemented with 0.5% FCS. TMR (diluted from a 10 mM stock in DMSO) was added to the cells at a final concentration of 10 μM, in 0.5 ml of growth medium in the presence or absence of the tested alkaloids (given prior to the dye as indicated). Cells were incubated with TMR and the tested drug for 30 minutes at 37° C. To terminate the assay, the plates were placed on ice and the cells were washed three times with ice-cold phosphate-buffered saline (PBS) in order to remove residual TMR. The cells were then lysed by incubation with 0.5 ml of 0.5 N NaOH for 20 minutes at room temperature, and the lysates were neutralized with 0.5 ml of 0.5 N HCl and collected. Cell-associated TMR was determined by measuring the fluorescence intensity of the lysates using a fluorescence spectrophotometer (excitation at 555-nm, emission at 575-nm). Blank values obtained at zero time were subtracted from all the fluorescence values and the results were normalized to the amount of cellular protein in each well. Experiments were carried out in triplicates and were repeated at least twice. Results are expressed as a percentage of incubations with TMR alone.
# Expression of multidrug transporters markedly decreases drug accumulation in MDR cells. Conversely, in such cells drug accumulation is increased by inhibition of P-gp and related proteins with MDR reversal agents. TMR accumulation was utilized to examine the effect of steroidal alkaloids on P.gp in MCF-7-AdrR adriamycin-resistant human breast adenocarcinoma cells.
# [4] = 10 μM tested compound, increasing vinblastine, 48 h, FIG. 5
compound,measurement,setting,value
CC1=C2C[C@H]3[C@@H](CC=C4C[C@@H](O)CC[C@@]43C)[C@@H]2CC[C@]12O[C@@H]1C[C@H](C)CN[C@H]1[C@H]2C [cyclopamine],teratogenic activity,[1],potent teratogen
same,reduction of cell viability by adriamycin in the presence of the steroidal alkaloid,MCF-7-AdrR cells [2]; 48 h,~90%
same,EC50,MCF-7-AdrR cells [2]; 48 h,2.5 µM
same,reduction of cell survival by the steroidal alkaloid alone,MCF-7-AdrR cells [2]; 48 h,10-20%
same,EC50,MCF-7-AdrR cells [3],~1000 nM
same,maximal stimulation of TMR accumulation,MCF-7-AdrR cells [3],2 fold
same,effect on TMR accumulation,MCF-7-AdrR cells [3],concentration-dependent increase
CC1=C2C(=O)[C@H]3[C@@H](CC=C4C[C@@H](O)CC[C@@]43C)[C@@H]2CC[C@]12O[C@@H]1C[C@H](C)CN[C@H]1[C@H]2C [jervine],sensitization to vinblastine: shift of concentration-response curve to the left,MCF-7-AdrR cells [2]; [4],most effective
C[C@@H]1CN[C@H]2[C@@H](C)[C@@]3(CC[C@H]4[C@@H]5CC[C@H]6C[C@@H](O)CC[C@]6(C)[C@H]5C(=O)[C@@H]4[C@H]3C)O[C@@H]2C1 [tetrahydrojervine],sensitization to vinblastine: shift of concentration-response curve to the left,MCF-7-AdrR cells [2]; [4],most effective
C[C@H]1CC[C@]2(NC1)O[C@H]1C[C@H]3[C@@H]4CC[C@H]5C[C@@H](O)CC[C@]5(C)[C@H]4CC[C@]3(C)[C@H]1[C@@H]2C [tomatidine],teratogenic activity,[1],no teratogenic activity
same,reduction of cell viability by adriamycin in the presence of the steroidal alkaloid,MCF-7-AdrR cells [2]; 48 h,more than 90%
same,EC50,MCF-7-AdrR cells [2]; 48 h,5 µM
same,reduction of cell survival by the steroidal alkaloid alone,MCF-7-AdrR cells [2]; 48 h,modest cytotoxic activity of its own
same,reduction of cell survival by the steroidal alkaloid alone,"MCF-7-AdrR cells [2]; 48 h, listed as Tomatidine",20-25%
same,EC50,MCF-7-AdrR cells [3],~1000 nM
same,maximal stimulation of TMR accumulation,MCF-7-AdrR cells [3],2.5 fold
same,effect on TMR accumulation,MCF-7-AdrR cells [3],concentration-dependent increase
"COc1ccc(CCN(C)CCCC(C#N)(c2ccc(OC)c(OC)c2)C(C)C)cc1OC (stereo not drawn) [verapamil, reference compound]",effect on drug (adriamycin) sensitivity of MCF-7-AdrR cells,"MCF-7-AdrR cells [2]; preliminary experiments, data not shown",markedly increase their drug sensitivity
same,effect on TMR accumulation,MCF-7-AdrR cells [3],back to near normal levels
Cc1c([C@H](C)[C@@H]2NC[C@@H](C)C[C@H]2O)ccc2c1C[C@H]1[C@H]2CC=C2C[C@@H](O)CC[C@@]21C [veratramine],sensitization to vinblastine,"MCF-7-AdrR cells [2]; 1 μM veratramine, increasing vinblastine, 48 h, FIG. 5",sensitize
cyclopamine-4en-3-one [cylopamine4-en-3-one],sensitization to vinblastine: shift of concentration-response curve to the left,MCF-7-AdrR cells [2],most effective

# — patent US20030114393A1 (priority 1999, published 2003)
